These results are taken from patent publication US20150141336A1, “Pancreatic Peptide Compounds and Use” (Novo Nordisk A/S, priority 2012, published 2015).

Numbered stars: 1 amine (or outer) side, 2 acyl side, 3 side chain; on linkers, the order of the positions; unused ones are H or OH. Side chains are listed from the residue outwards. Peptide text beside a SMILES is read from it. * marks the point of attachment. C18 diacid = O=C(O)CCCCCCCCCCCCCCCCC(=O)*; γGlu = O=C(O)[C@H](CCC(=O)[*:2])N[*:1]; AEEA = NCCOCCOCC(=O)O

What is called half-life is the time needed for the level to fall by half in the phase considered.

A short description of this data set: Assay (II) PK i.v. minipig, in vivo half-life. More on the design: species or system Göttingen mini-pigs. The following applies: male, Göttingen, minipig, iv, Half-life minipig, Assay (II). On the procedure: An assay useful for measuring the pharmacokinetic (PK) profile of the PP peptide is the following mini-pig PK assay.
Five male Göttingen mini-pigs weighing approximately 18 to 22 kg from Ellegaard Göttingen Minipigs NS, Denmark are included in the study. The mini-pigs have two central venous catheters inserted which are used for intra venous (i.v.) dosing and blood sampling. The test compound is dissolved in 50 mM K2HPO4, 0.05% tween 80, pH=8.0 to a concentration of 180 nmol/ml. For comparison a control compound, such as human PP(1-36), may be administered. The pigs are dosed with 6 nmol test compound/kg body weight. Blood samples are taken at the following time points: pre-dose, 30 minutes, 1, 2, 4, 8, 24, 48, 72, 96, 120, 168 and 240 hours post dosing. The blood samples were collected into test tubes containing EDTA buffer for stabilization and kept on ice for max. 20 minutes before centrifugation. The centrifugation procedure to separate plasma may be: 4° C., approx. 2500 g for 10 minutes. Plasma is collected and immediately transferred to Micronic tubes stored at −20° C. until assayed.
The test compounds were assayed in plasma by Turbulent Flow Chromatography coupled to Liquid Chromatography with subsequent Tandem Mass Spectrometric Detection (TFC/LC/MS/MS). Positive mode ionization and Multiple Reaction Monitoring (MRM) of a multiple protonated species fragmented to a singly charged ion was employed for selectivity. The selectivity of the method allows multiple compounds to be quantified in one sample.
The concentrations of the test compound in samples of unknown concentration were calculated using the peak area as a function of amount. Calibration graphs based on plasma samples spiked with the analyte were constructed by regression analysis. Typical dynamic range for standard assay was 1-2000 nmol/I. The method performance was assured by co-assaying quality control (QC) samples in duplicate at three concentration levels.
Stock and working solutions of analytes were prepared in plasma and incubated by 37° C. for 1 hour.
Sample Preparation: 40.0 μl EDTA-plasma was added 160 μl 50% methanol, 1% formic acid, then vortexed and centrifuged at 16457 g at 4° C. for 20 minutes. The supernatant was transferred to a 96 well plate, plates incubated with 0.4% BSA, 37° C. for ½ hour. Injection volume was 25 μl.
The analysis was carried out on a Sciex API 3000 mass spectrometer (MDS/Sciex, Concord, ON, Canada) using a TurbolonSpray interface. The TFC/LC system consisted of two Flux Rheos 2000 quaternary pumps, a Cohesive VIM module (Cohesive Technologies, Franklin, Mass., USA) and a CTC LC/PAL auto sampler (CTC Analytics, Zingen, Switzerland). The centrifuge employed was a HettichMikro 22R (A. Hettich, Tuttlingen, Germany). For sample clean up a TurboFlow C8 column (0.5×50 mm) (Cohesive Technologies/Thermofisher) was used and the LC separation was done on a Proteo 4 μm column (2.0×50 mm) (Phenomenex, Torrance, Calif., USA). Eluents were isocratic and gradient combinations of methanol, acetonitril, Milli-Q water and formic acid.
Non-compartmental analysis (NCA): Plasma concentration-time profiles are analyzed by non-compartmental pharmacokinetics analysis (NCA) using WinNonlin Professional 5.0 (Pharsight Inc., Mountain View, Calif., USA). NCA is performed using the individual plasma concentration-time profiles from each animal.
For `CSCC[C@H](NC(=O)[C@H](CCC(N)=O)NC(=O)[C@H](CCC(=O)O)NC(=O)[C@@H]1CCCN1C(=O)[C@@H](NC(=O)[C@H](C)NC(=O)[C@H](CC(N)=O)NC(=O)[C@H](CC(=O)O)NC(=O)CNC(=O)[C@@H]1CCCN1C(=O)[C@H](Cc1ccc(O)cc1)NC(=O)[C@@H](NC(=O)[C@@H]1CCCN1C(=O)[C@H](CCC(=O)O)NC(=O)[C@@H](N)CC(C)C)C(C)C)[C@@H](C)O)C(=O)N[C@@H](C)C(=O)N[C@@H](CCC(N)=O)C(=O)N[C@@H](Cc1ccc(O)cc1)C(=O)N[C@@H](C)C(=O)N[C@@H](C)C(=O)N[C@@H](CC(=O)O)C(=O)N[C@@H](CC(C)C)C(=O)N[C@@H](CCCNC(=N)N)C(=O)N[C@@H](CCCNC(=N)N)C(=O)N[C@@H](Cc1ccc(O)cc1)C(=O)N[C@@H](CCCCNC(=O)COCCOCCNC(=O)COCCOCCNC(=O)CC[C@H](NC(=O)CCCCCCCCCCCCCCCCC(=O)O)C(=O)O)C(=O)N[C@@H](CC(N)=O)C(=O)N[C@@H](CCSC)C(=O)N[C@@H](CC(C)C)C(=O)N[C@H](C(=O)N[C@@H](CCCNC(=N)N)C(=O)N1CCC[C@H]1C(=O)N[C@@H](CCCNC(=N)N)C(=O)N[C@@H](Cc1ccc(O)cc1)C(N)=O)[C@@H](C)O` [Compound AN] (H-LEPVYPGDNATPEQMAQYAADLRRYK([AEEA-AEEA-γGlu-C18 diacid])NMLTRPRY-NH2; N-terminus and C-terminus assumed), the half-life is 69 h.

On to `CC[C@H](C)[C@H](NC(=O)[C@H](CCCCNC(=O)COCCOCCNC(=O)COCCOCCNC(=O)CC[C@H](NC(=O)CCCCCCCCCCCCCCCCC(=O)O)C(=O)O)NC(=O)[C@H](CCCNC(=N)N)NC(=O)[C@H](CCCNC(=N)N)NC(=O)[C@H](CC(C)C)NC(=O)[C@H](CC(=O)O)NC(=O)[C@H](C)NC(=O)[C@H](C)NC(=O)[C@H](Cc1ccc(O)cc1)NC(=O)[C@H](CCC(N)=O)NC(=O)[C@H](C)NC(=O)[C@H](CCSC)NC(=O)[C@H](CCC(N)=O)NC(=O)[C@H](CCC(=O)O)NC(=O)[C@@H]1CCCN1C(=O)[C@@H](NC(=O)[C@H](C)NC(=O)[C@H](CC(N)=O)NC(=O)[C@H](CC(=O)O)NC(=O)CNC(=O)[C@@H]1CCCN1C(=O)[C@H](Cc1ccc(O)cc1)NC(=O)[C@@H](NC(=O)[C@@H]1CCCN1C(=O)[C@H](CCC(=O)O)NC(=O)[C@@H](N)CC(C)C)C(C)C)[C@@H](C)O)C(=O)N[C@@H](CC(N)=O)C(=O)N[C@@H](CCSC)C(=O)N[C@@H](CC(C)C)C(=O)N[C@H](C(=O)N[C@@H](CCCNC(=N)N)C(=O)N1CCC[C@H]1C(=O)N[C@@H](CCCNC(=N)N)C(=O)N[C@@H](Cc1ccc(O)cc1)C(N)=O)[C@@H](C)O` [Compound AO] (H-LEPVYPGDNATPEQMAQYAADLRRK([AEEA-AEEA-γGlu-C18 diacid])INMLTRPRY-NH2; N-terminus and C-terminus assumed), for which the half-life is 44 h. Take `CC[C@H](C)[C@H](NC(=O)[C@H](Cc1ccc(O)cc1)NC(=O)[C@H](CCCNC(=N)N)NC(=O)[C@H](CCCCNC(=O)COCCOCCNC(=O)COCCOCCNC(=O)CC[C@H](NC(=O)CCCCCCCCCCCCCCCCC(=O)O)C(=O)O)NC(=O)[C@H](CC(C)C)NC(=O)[C@H](CC(=O)O)NC(=O)[C@H](C)NC(=O)[C@H](C)NC(=O)[C@H](Cc1ccc(O)cc1)NC(=O)[C@H](CCC(N)=O)NC(=O)[C@H](C)NC(=O)[C@H](CCSC)NC(=O)[C@H](CCC(N)=O)NC(=O)[C@H](CCC(=O)O)NC(=O)[C@@H]1CCCN1C(=O)[C@@H](NC(=O)[C@H](C)NC(=O)[C@H](CC(N)=O)NC(=O)[C@H](CC(=O)O)NC(=O)CNC(=O)[C@@H]1CCCN1C(=O)[C@H](Cc1ccc(O)cc1)NC(=O)[C@@H](NC(=O)[C@@H]1CCCN1C(=O)[C@H](CCC(=O)O)NC(=O)[C@@H](N)CC(C)C)C(C)C)[C@@H](C)O)C(=O)N[C@@H](CC(N)=O)C(=O)N[C@@H](CCSC)C(=O)N[C@@H](CC(C)C)C(=O)N[C@H](C(=O)N[C@@H](CCCNC(=N)N)C(=O)N1CCC[C@H]1C(=O)N[C@@H](CCCNC(=N)N)C(=O)N[C@@H](Cc1ccc(O)cc1)C(N)=O)[C@@H](C)O` [Compound AQ] (H-LEPVYPGDNATPEQMAQYAADLK([AEEA-AEEA-γGlu-C18 diacid])RYINMLTRPRY-NH2; N-terminus and C-terminus assumed): the half-life is 48 h. In the case of `CC[C@H](C)[C@H](NC(=O)[C@H](Cc1ccc(O)cc1)NC(=O)[C@H](CCCNC(=N)N)NC(=O)[C@H](CCCNC(=N)N)NC(=O)[C@H](CCCCNC(=O)COCCOCCNC(=O)COCCOCCNC(=O)CC[C@H](NC(=O)CCCCCCCCCCCCCCCCC(=O)O)C(=O)O)NC(=O)[C@H](CC(=O)O)NC(=O)[C@H](C)NC(=O)[C@H](C)NC(=O)[C@H](Cc1ccc(O)cc1)NC(=O)[C@H](CCC(N)=O)NC(=O)[C@H](C)NC(=O)[C@H](CCSC)NC(=O)[C@H](CCC(N)=O)NC(=O)[C@H](CCC(=O)O)NC(=O)[C@@H]1CCCN1C(=O)[C@@H](NC(=O)[C@H](C)NC(=O)[C@H](CC(N)=O)NC(=O)[C@H](CC(=O)O)NC(=O)CNC(=O)[C@@H]1CCCN1C(=O)[C@H](Cc1ccc(O)cc1)NC(=O)[C@@H](NC(=O)[C@@H]1CCCN1C(=O)[C@H](CCC(=O)O)NC(=O)[C@@H](N)CC(C)C)C(C)C)[C@@H](C)O)C(=O)N[C@@H](CC(N)=O)C(=O)N[C@@H](CCSC)C(=O)N[C@@H](CC(C)C)C(=O)N[C@H](C(=O)N[C@@H](CCCNC(=N)N)C(=O)N1CCC[C@H]1C(=O)N[C@@H](CCCNC(=N)N)C(=O)N[C@@H](Cc1ccc(O)cc1)C(N)=O)[C@@H](C)O` [Compound AR] (H-LEPVYPGDNATPEQMAQYAADK([AEEA-AEEA-γGlu-C18 diacid])RRYINMLTRPRY-NH2; N-terminus and C-terminus assumed) it was 31 h; in that of `CC[C@H](C)[C@H](NC(=O)[C@H](Cc1ccc(O)cc1)NC(=O)[C@H](CCCNC(=N)N)NC(=O)[C@H](CCCNC(=N)N)NC(=O)[C@H](CC(C)C)NC(=O)[C@H](CCCCNC(=O)COCCOCCNC(=O)COCCOCCNC(=O)CC[C@H](NC(=O)CCCCCCCCCCCCCCCCC(=O)O)C(=O)O)NC(=O)[C@H](C)NC(=O)[C@H](C)NC(=O)[C@H](Cc1ccc(O)cc1)NC(=O)[C@H](CCC(N)=O)NC(=O)[C@H](C)NC(=O)[C@H](CCSC)NC(=O)[C@H](CCC(N)=O)NC(=O)[C@H](CCC(=O)O)NC(=O)[C@@H]1CCCN1C(=O)[C@@H](NC(=O)[C@H](C)NC(=O)[C@H](CC(N)=O)NC(=O)[C@H](CC(=O)O)NC(=O)CNC(=O)[C@@H]1CCCN1C(=O)[C@H](Cc1ccc(O)cc1)NC(=O)[C@@H](NC(=O)[C@@H]1CCCN1C(=O)[C@H](CCC(=O)O)NC(=O)[C@@H](N)CC(C)C)C(C)C)[C@@H](C)O)C(=O)N[C@@H](CC(N)=O)C(=O)N[C@@H](CCSC)C(=O)N[C@@H](CC(C)C)C(=O)N[C@H](C(=O)N[C@@H](CCCNC(=N)N)C(=O)N1CCC[C@H]1C(=O)N[C@@H](CCCNC(=N)N)C(=O)N[C@@H](Cc1ccc(O)cc1)C(N)=O)[C@@H](C)O` [Compound AS] (H-LEPVYPGDNATPEQMAQYAAK([AEEA-AEEA-γGlu-C18 diacid])LRRYINMLTRPRY-NH2; N-terminus and C-terminus assumed), 10 h. On to `CC[C@H](C)[C@H](NC(=O)[C@H](Cc1ccc(O)cc1)NC(=O)[C@H](CCCNC(=N)N)NC(=O)[C@H](CCCNC(=N)N)NC(=O)[C@H](CC(C)C)NC(=O)[C@H](CC(=O)O)NC(=O)[C@H](CCCCNC(=O)COCCOCCNC(=O)COCCOCCNC(=O)CC[C@H](NC(=O)CCCCCCCCCCCCCCCCC(=O)O)C(=O)O)NC(=O)[C@H](C)NC(=O)[C@H](Cc1ccc(O)cc1)NC(=O)[C@H](CCC(N)=O)NC(=O)[C@H](C)NC(=O)[C@H](CCSC)NC(=O)[C@H](CCC(N)=O)NC(=O)[C@H](CCC(=O)O)NC(=O)[C@@H]1CCCN1C(=O)[C@@H](NC(=O)[C@H](C)NC(=O)[C@H](CC(N)=O)NC(=O)[C@H](CC(=O)O)NC(=O)CNC(=O)[C@@H]1CCCN1C(=O)[C@H](Cc1ccc(O)cc1)NC(=O)[C@@H](NC(=O)[C@@H]1CCCN1C(=O)[C@H](CCC(=O)O)NC(=O)[C@@H](N)CC(C)C)C(C)C)[C@@H](C)O)C(=O)N[C@@H](CC(N)=O)C(=O)N[C@@H](CCSC)C(=O)N[C@@H](CC(C)C)C(=O)N[C@H](C(=O)N[C@@H](CCCNC(=N)N)C(=O)N1CCC[C@H]1C(=O)N[C@@H](CCCNC(=N)N)C(=O)N[C@@H](Cc1ccc(O)cc1)C(N)=O)[C@@H](C)O` [Compound AT] (H-LEPVYPGDNATPEQMAQYAK([AEEA-AEEA-γGlu-C18 diacid])DLRRYINMLTRPRY-NH2; N-terminus and C-terminus assumed), for which the half-life is 34 h.
